Test system: 379773-124-R-J2-PDC spheroid viability
Assay: Anticancer human tumor 379773-124-R-J2-PDC patient-derived endometrial carcinoma cell line growth inhibition [POLQ]
Conditions: spheroids with HUVEC and MSC; for IC50: curve of first compound; for viability, T/C: stronger effect = lower value
Method: Multicellular complex tumor spheroid response to Polymerase (POL) inhibitors (novobiocin, ART-558, RP6685) in combination with a variety of drugs and investigational agents in selected tumor cell lines
The POL inhibitors (novobiocin, ART-558, and RP6685) were evaluated both individually and in combination with standard of care and investigational anticancer small molecules within a complex spheroid model of solid tumors. . Complex spheroids include a stromal component modeled by human endothelial cells (HUVEC) and fibroblasts modeled by human mesenchymal stem cells (MSCs). The concentration ranges selected for each drug and investigational agent were based upon clinically achievable concentrations if the clinical Cmax of the agent was known.
Compounds. The drugs and investigational agents: novobiocin (NSC847541), ART-558 (NSC835418), RP-6685 (NSC848927), peposertib (NSC802822), ceralasertib (NSC780249), elimusertib (NSC800525), camonsertib (NSC841442), AZD-1390 (NSC803789), olaparib (NSC753686), talazoparib (NSC767125), rucaparib (NSC756644), sotorasib (NSC818433), MRTX-1133 (NSC836407), SN-38 (NSC673596), topotecan (NSC609699), epotoside (NSC141540), doxorubicin (NSC123127), gemcitabine (NSC613327), 5-fluorouracil (NSC19893), paclitaxel (NSC125973), vemurafenib (NSC761431), MSA-2 (NSC828583), SN-011 (NSC837082), adavosertib (NSC754352), prexasertib (NSC758257), carboplatin (NSC241240) and oxaliplatin (NSC266046), were obtained from the National Cancer Institute (NCI) Developmental Therapeutics Program Chemical Repository (21). The FDA-approved anticancer drug set is available from the Developmental Therapeutics Program at https://dtp.cancer.gov/organization/dscb/obtaining/. […] The stock solutions were prepared in dimethyl sulfoxide (DMSO, Sigma-Aldrich, St. Louis, MO, cat. D2650), except for the platinum compounds which were prepared in saline (Quality Biological, Gaithersburg, MD, cat. 114-055-101), at 800-fold the tested concentration and stored at -70 degrees C prior to their use. All drugs and investigational agents were tested over a range starting from a high concentration at or near the clinical Cmax and decreasing in half-log increments. If the clinical Cmax for an agent had not been determined, the highest concentration tested was 10 microM, except for SN-38, which was tested at a high concentration of 1 microM.
Cell Culture. All cells were maintained in an incubator at 37 degrees C and 5% CO2 with 95% humidity. The PDC lines were cultured according to standard operating procedures established by the NCI PDMR (https://pdmr.cancer.gov). Table 3 of the manuscript, lists the cell lines along with the number of the three cell types plated to form the mct-spheroids and media for tumor cell growth. After thawing, all PDC lines, except 997537-175-T-J1-PDC and 415267-285-R-J2-PDC, were cultured in Matrigel-coated flasks prepared with a working solution of 1X Ham's F-12 nutrient mix, without supplementation (Thermo Fisher Scientific, cat. 11765054), 100 U/mL penicillin-streptomycin (Thermo Fisher Scientific, cat. 15140122), and 2.5% Matrigel (Corning Inc., Corning, NY, cat. 354248) for the first three passages. The two PDC lines 997537-175-T-J1-PDC and 415267-285-R-J2-PDC were cultured on uncoated flasks. The 857933-349-R-J2-PDC line was cultured in 6C/Colon 1B media containing advanced DMEM/F-12 (Thermo Fisher Scientific, cat. 12634028), 10 mM HEPES (Thermo Fisher Scientific, cat. 15630080), 1X GlutaMAX supplement (Thermo Fisher Scientific, cat. 35050061), 0.1 mg/mL primocin (InvivoGen, San Diego, CA, cat. ant-pm-2), 10% defined fetal bovine serum, heat inactivated (HyClone Laboratories Inc., Logan, UT, cat. SH30070.03HI), 50% L-WRN conditioned media (ATCC, cat. CRL-3276), 1.25 mM N-Acetyl-L-cysteine (Sigma-Aldrich, cat. A9165), 10 mM nicotinamide (Sigma-Aldrich, cat. N0636), 1X B-27 supplement (Thermo Fisher Scientific, cat. 17504044), 1X N-2 supplement (Thermo Fisher Scientific, cat. […]

[1] = second compound 0.0316 µM, first compound 0.0316 µM
[2] = second compound 0.0316 µM, first compound 0.1 µM
[3] = second compound 0.1 µM, first compound 0.0316 µM
[4] = second compound 0.1 µM, first compound 0.1 µM
[5] = second compound 0.316 µM, first compound 0.0316 µM
[6] = second compound 0.316 µM, first compound 0.1 µM
[7] = second compound 1 µM, first compound 0.0316 µM
[8] = second compound 1 µM, first compound 0.1 µM
[9] = second compound 3.16 µM, first compound 0.0316 µM
[10] = second compound 3.16 µM, first compound 0.1 µM
[11] = second compound 10 µM, first compound 0.0316 µM
[12] = second compound 10 µM, first compound 0.1 µM
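Also: spheroids exposed to drugs for seven days before readout.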
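For viability, T/C in this document: percent viability relative to DMSO vehicle control taken as 100%.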

SMILES: CC1COCCN1c1cc(-c2ccnn2C)c2ccnc(-c3ccn[nH]3)c2n1 (centres undefined) + Cc1cccc(N(C)C(=O)C2C(O)CCN2c2nc(C)cc(C(F)(F)F)c2C#N)c1
- IC50 (second compound 0.0316 µM): 99.4 nM
- IC50 (second compound 0.1 µM): 102 nM
- IC50 (second compound 0.316 µM): 84.7 nM
- IC50 (second compound 1 µM): 74.2 nM
- IC50 (second compound 3.16 µM): 102 nM
- IC50 (second compound 10 µM): 96.3 nM
- viability, T/C [1]: 81.4%
- viability, T/C [2]: 49.9%
- viability, T/C (second compound 0.0316 µM, first compound 0.316 µM): 12.2%
- viability, T/C (second compound 0.0316 µM, first compound 1 µM): 10.4%
- viability, T/C (second compound 0.0316 µM, first compound 3.16 µM): 9.61%
- viability, T/C (second compound 0.0316 µM, first compound 10 µM): 5.75%
- viability, T/C [3]: 83.7%
- viability, T/C [4]: 50.7%
- viability, T/C (second compound 0.1 µM, first compound 0.316 µM): 16.9%
- viability, T/C (second compound 0.1 µM, first compound 1 µM): 10.2%
- viability, T/C (second compound 0.1 µM, first compound 3.16 µM): 8.42%
- viability, T/C (second compound 0.1 µM, first compound 10 µM): 6.47%
- viability, T/C [5]: 79.4%
- viability, T/C [6]: 45.1%
- viability, T/C (second compound 0.316 µM, first compound 0.316 µM): 10.8%
- viability, T/C (second compound 0.316 µM, first compound 1 µM): 7.57%
- viability, T/C (second compound 0.316 µM, first compound 3.16 µM): 9.57%
- viability, T/C (second compound 0.316 µM, first compound 10 µM): 7.53%
- viability, T/C [7]: 76.5%
- viability, T/C [8]: 40.7%
- viability, T/C (second compound 1 µM, first compound 0.316 µM): 13.5%
- viability, T/C (second compound 1 µM, first compound 1 µM): 8.7%
- viability, T/C (second compound 1 µM, first compound 3.16 µM): 8.89%
- viability, T/C (second compound 1 µM, first compound 10 µM): 6.67%
- viability, T/C [9]: 76.9%
- viability, T/C [10]: 50.7%
- viability, T/C (second compound 3.16 µM, first compound 0.316 µM): 14%
- viability, T/C (second compound 3.16 µM, first compound 1 µM): 9.29%
- viability, T/C (second compound 3.16 µM, first compound 3.16 µM): 8.28%
- viability, T/C (second compound 3.16 µM, first compound 10 µM): 6.05%
- viability, T/C [11]: 70.5%
- viability, T/C [12]: 49.3%
- viability, T/C (second compound 10 µM, first compound 0.316 µM): 14%
- viability, T/C (second compound 10 µM, first compound 1 µM): 9.57%
- viability, T/C (second compound 10 µM, first compound 3.16 µM): 9.04%
- viability, T/C (second compound 10 µM, first compound 10 µM): 5.97%

SMILES: CC[C@@]1(O)C(=O)OCc2c1cc1n(c2=O)Cc2cc3c(CN(C)C)c(O)ccc3nc2-1 + Cc1cccc(N(C)C(=O)C2C(O)CCN2c2nc(C)cc(C(F)(F)F)c2C#N)c1
- IC50 (second compound 0.0316 µM): 24.3 nM
- IC50 (second compound 0.1 µM): 21.1 nM
- IC50 (second compound 0.316 µM): 22.2 nM
- IC50 (second compound 1 µM): 20.2 nM
- IC50 (second compound 3.16 µM): 19.5 nM
- IC50 (second compound 10 µM): 16.3 nM
- viability, T/C (second compound 0.0316 µM, first compound 0.000316 µM): 90.3%
- viability, T/C (second compound 0.0316 µM, first compound 0.001 µM): 89.1%
- viability, T/C (second compound 0.0316 µM, first compound 0.00316 µM): 77.8%
- viability, T/C (second compound 0.0316 µM, first compound 0.01 µM): 85.4%
- viability, T/C [1]: 39.6%
- viability, T/C [2]: 14.2%
- viability, T/C (second compound 0.1 µM, first compound 0.000316 µM): 89.2%
- viability, T/C (second compound 0.1 µM, first compound 0.001 µM): 88.6%
- viability, T/C (second compound 0.1 µM, first compound 0.00316 µM): 84.1%
- viability, T/C (second compound 0.1 µM, first compound 0.01 µM): 81.9%
- viability, T/C [3]: 32.9%
- viability, T/C [4]: 14%
- viability, T/C (second compound 0.316 µM, first compound 0.000316 µM): 87.3%
- viability, T/C (second compound 0.316 µM, first compound 0.001 µM): 77.5%
- viability, T/C (second compound 0.316 µM, first compound 0.00316 µM): 85.4%
- viability, T/C (second compound 0.316 µM, first compound 0.01 µM): 85.7%
- viability, T/C [5]: 34.8%
- viability, T/C [6]: 13.8%
- viability, T/C (second compound 1 µM, first compound 0.000316 µM): 86.6%
- viability, T/C (second compound 1 µM, first compound 0.001 µM): 83.3%
- viability, T/C (second compound 1 µM, first compound 0.00316 µM): 95.1%
- viability, T/C (second compound 1 µM, first compound 0.01 µM): 86.8%
- viability, T/C [7]: 26.7%
- viability, T/C [8]: 16%
- viability, T/C (second compound 3.16 µM, first compound 0.000316 µM): 84.9%
- viability, T/C (second compound 3.16 µM, first compound 0.001 µM): 87.7%
- viability, T/C (second compound 3.16 µM, first compound 0.00316 µM): 93.3%
- viability, T/C (second compound 3.16 µM, first compound 0.01 µM): 87%
- viability, T/C [9]: 23%
- viability, T/C [10]: 17.2%
- viability, T/C (second compound 10 µM, first compound 0.000316 µM): 97.7%
- viability, T/C (second compound 10 µM, first compound 0.001 µM): 95%
- viability, T/C (second compound 10 µM, first compound 0.00316 µM): 86.4%
- viability, T/C (second compound 10 µM, first compound 0.01 µM): 70.6%
- viability, T/C [11]: 22.1%
- viability, T/C [12]: 17.8%

Reference: PubChem BioAssay AID1963848 (Molecular Pharmacology Branch, DTP, NCI, 2024)
